One may read the inhibition as how much of the control response was suppressed.

For one test, the target named is T1, recombinant human mPGES-1 (Homo sapiens, UniProt O14684).
T1 construct: made in house; host or cells: Rosetta E. coli (microsomal/membrane fraction)
T1 sequence (O14684 1-152): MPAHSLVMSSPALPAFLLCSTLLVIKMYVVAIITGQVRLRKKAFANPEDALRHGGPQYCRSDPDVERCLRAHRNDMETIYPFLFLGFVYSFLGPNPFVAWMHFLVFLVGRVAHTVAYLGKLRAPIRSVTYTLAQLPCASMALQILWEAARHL
Description: mPGES-1 inhibition test (microsomes, PGH2 substrate, HTRF detection of PGE2). In kind it is biochemical. As to conditions: inhibition of mPGES-1 at 1 μM (marked in cell). In a few lines: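 Bacterial microsomes with GSH-containing phosphate buffer at pH 7.4 are exposed to test compounds for 25 minutes before a one-minute PGH2 conversion. The quenched, 750-fold diluted mixture is analysed by time-resolved FRET for PGE2.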
Consider `COc1cc2c(cc1C(=O)NC1CCC(C)(C)CC1)nc(Nc1c(F)c(F)cc(F)c1F)n2C` [Example 652, 2-(2,3,5,6-tetrafluoro-phenylamino)-6-methoxy-N-(4,4-dimethy-cyclohex-1-yl)-1-methyl-1H-benzimidazole-5-carboxamide], for which the inhibition at 1 µM was found to be 94%. The same measure, in the same setting: under `COc1cc2c(cc1C(=O)NC1CCC3(CC1)CC3)nc(Nc1c(Cl)ccc(Cl)c1F)n2C` [Example 645, 2-(3,6-Dichloro-2-fluoro-phenylamino)-6-methoxy-N-(spiro[2.5]oct-6-yl)-1-methyl-1H-benzimidazole-5-carboxamide] stands 100%.

The test is the same for the next values; noted with them: inhibition of mPGES-1 at 10 μM.
`Cn1c(Nc2c(Cl)cccc2Cl)nc2cc(C(=O)NCCCC3CC3)c(F)cc21` [Example 398, N-(3-Cyclopropylpropyl)-2-(2,6-dichlorophenylamino)-6-fluoro-1-methyl-1H-benzimidazole-5-carboxamide]: the inhibition at 10 µM is 96%. With `Cn1c(Nc2c(Cl)cccc2Cl)nc2cc(C(=O)NCc3ccccn3)c(F)cc21` [Example 548, 2-(2,6-Dichlorophenylamino)-6-fluoro-1-methyl-N-(pyridin-2-ylmethyl)-1H-benzimidazole-5-carboxamide], the inhibition at 10 µM came out at 93%.

For `Cc1c[n+]([O-])c(NC(=O)c2ccc3nc(Nc4c(Cl)cccc4Cl)[nH]c3c2)cc1Cl` [Example 418, 4-Chloro-2-(2-(2,6-dichlorophenylamino)-1H-benzimidazole-6-carboxamido)-5-methylpyridine 1-oxide], the inhibition at 10 µM stood at 100%. The same measure, in the same setting: under `Cn1c(Nc2c(Cl)cccc2Cl)nc2cc(C(=O)N[C@H]3CC[C@@H](C(F)(F)F)CC3)c(F)cc21` [Example 170, 2-(2,6-Dichloro-phenylamino)-6-fluoro-1-methyl-1H-benzimidazole-5-carboxylic acid (cis-4-trifluoromethyl-cyclohexyl)-amide] stands 100%; under `O=C(NC1CCC2(CC1)CC2)c1ccc2[nH]c(Nc3c(F)cccc3Cl)nc2c1` [Example 488, 2-(2-Chloro-6-fluorophenylamino)-N-(spiro[2.5]octan-6-yl)-1H-benzimidazole-5-carboxamide], 98%. Still for that read-out and setting: the value for `Cc1cccnc1NC(=O)c1ccc2c(c1)nc(Nc1c(Cl)cccc1Cl)n2C` [Example 341, 2-(2,6-Dichloro-phenylamino)-1-methyl-1-H-benzimidazole-5-carboxylic acid (3-methyl-pyridin-2-yl)-amide] was 92%. Still for that read-out and setting: the value for `CC(C)CCCNC(=O)c1cc2nc(Nc3c(Cl)cccc3Cl)n(C)c2cc1F` [Example 408, 2-(2,6-Dichlorophenylamino)-6-fluoro-1-methyl-N-(4-methylpentyl)-1H-benzimidazole-5-carboxamide] was 100%; that for `C[C@@H]1CCC(NC(=O)c2cc3nc(Nc4c(F)cccc4Cl)n(C)c3cc2F)C1` (stereo partly drawn) [Example 501, 2-(2-Chloro-6-fluorophenylamino)-6-fluoro-1-methyl-N-((3R)-3-methylcyclopentyl)-1H-benzimidazole-5-carboxamide] was 98%; that for `CC(C)NC(=O)c1cc(Br)c2c(c1)nc(Nc1c(Cl)cccc1Cl)n2C` [Example 353, 7-Bromo-2-(2,6-dichloro-phenylamino)-1-methyl-1H-benzimidazole-5-carboxylic acid isopropylamide] was 75%. `O=C(NC1CCC2(CC1)CC2)c1cc2nc(Nc3c(Cl)ccc(Cl)c3F)[nH]c2cc1F` [Example 608, 2-(3,6-Dichloro-2-fluoro-phenylamino)-N-(spiro[2.5]oct-6-yl)-6-fluoro-1H-benzimidazole-5-carboxamide]: the inhibition at 10 µM is 92%.

Take `CCC1CCC(NC(=O)c2cc3nc(Nc4c(Cl)cccc4Cl)n(C)c3cc2F)CC1` (centres unmarked) [Example 437, 2-(2,6-Dichlorophenylamino)-N-(4-ethylcyclohexyl)-6-fluoro-1-methyl-1H-benzimidazole-5-carboxamide]: the inhibition at 10 µM came out at 97%. As for `O=C(Nc1cc(Cl)ccn1)c1cc(Br)c2[nH]c(Nc3c(Cl)cccc3Cl)nc2c1` [Example 500, 7-Bromo-N-(4-chloropyridin-2-yl)-2-(2,6-dichlorophenylamino)-1H-benzimidazole-5-carboxamide], the inhibition at 10 µM stood at 100%. On the same count and under the same terms, the value for `Cn1c(Nc2c(Cl)cc(F)cc2Cl)nc2cc(C(=O)Nc3ccc(Br)cc3)ccc21` [Example 578, 2-(2,6-Dichloro-4-fluoro-phenylamino)-N-(4-bromo-phenyl)-1-methyl-1H-benzimidazole-5-carboxamide] was 100%; that for `Cn1c(Nc2c(Cl)cccc2Cl)nc2cc(C(=O)N[C@H]3CC[C@H](C(F)F)CC3)c(F)cc21` [Example 475, 2-(2,6-Dichlorophenylamino)-N-((1r,4r)-4-(difluoromethyl)cyclohexyl)-6-fluoro-1-methyl-1H-benzimidazole-5-carboxamide] was 100%; that for `O=C(Nc1cccc(C(F)(F)F)n1)c1ccc2[nH]c(Nc3c(Cl)cccc3Cl)nc2c1` [Example 305, 2-(2,6-Dichloro-phenylamino)-1H-benzimidazole-5-carboxylic acid (6-trifluoromethyl-pyridin-2-yl)-amide] was 100%.

With `O=C(Nc1ccccc1)c1ccc2[nH]c(Nc3c(Cl)cccc3Cl)nc2c1` [Example 1, 2-(2,6-Dichloro-phenylamino)-1H-benzimidazole-5-carboxylic acid phenylamide], the inhibition at 10 µM amounted to 100%. Same read-out and setting: under `Cn1c(Nc2c(Cl)cccc2Cl)nc2cc(C(=O)NCc3cn4cc(Cl)ccc4n3)c(F)cc21` [Example 564, N-((6-Chloroimidazo[1,2-a]pyridin-2-yl)methyl)-2-(2,6-dichlorophenylamino)-6-fluoro-1-methyl-1H-benzimidazole-5-carboxamide] stands 70%. Still for that read-out and setting: the value for `Cn1c(NC(=O)c2ccc3[nH]c(Nc4c(Cl)cccc4Cl)nc3c2)nc2ccccc21` [Example 81, 2-(2,6-Dichloro-phenylamino)-1H-benzimidazole-5-carboxylic acid (1-methyl-benzimidazol-2-yl)-amide] was 84%; that for `CC(C)CCNC(=O)c1cc2nc(Nc3c(Cl)cccc3Cl)n(C)c2cc1F` [Example 428, 2-(2,6-Dichlorophenylamino)-6-fluoro-N-isopentyl-1-methyl-1H-benzimidazole-5-carboxamide] was 100%. The same measure, in the same setting: the value for `Cc1cccc(Cl)c1Nc1nc2cc(C(=O)Nc3ccccc3)ccc2[nH]1` [Example 12, 2-(2-Chloro-6-methyl-phenylamino)-1H-benzimidazole-5-carboxylic acid-phenylamide] was 99%. On to `CC(C)Oc1cc2[nH]c(Nc3c(Cl)ccc(Cl)c3F)nc2cc1C(=O)NC1CCC2(CC1)CC2` [Example 615, 2-(3,6-Dichloro-2-fluoro-phenylamino)-6-isopropoxy-N-(spiro[2.5]oct-6-yl)-1H-benzimidazole-5-carboxamide], for which the inhibition at 10 µM is 96%. The same measure, in the same setting: under `COc1cc2[nH]c(Nc3c(Cl)cccc3Cl)nc2cc1C(=O)NCc1ncccc1C(F)(F)F` [Example 383, 2-(2,6-Dichlorophenylamino)-6-methoxy-N-((3-trifluoromethyl-pyridin-2-yl)-methyl)-1H-benzimidazole-5-carboxamide] stands 100%; under `O=C(NC1CCCCC1)c1cc(Br)c2[nH]c(Nc3c(Cl)cccc3Cl)nc2c1` [Example 514, 7-Bromo-N-cyclohexyl-2-(2,6-dichlorophenylamino)-1H-benzimidazole-5-carboxamide], 95%. Same read-out and setting: the value for `O=C(Nc1ccc(Cl)c(F)c1)c1cc2nc(Nc3c(Cl)cccc3Cl)[nH]c2cc1F` [Example 124, 2-(2,6-Dichloro-phenylamino)-6-fluoro-1H-benzimidazol-5-carboxylic acid (4-chloro-3-fluoro-phenyl)-amide] was 98%; that for `Cc1cc(NC(=O)c2ccc3c(c2)nc(Nc2c(Cl)cccc2Cl)n3C)ncc1Cl` [Example 202, 2-(2,6-Dichloro-phenylamino)-1-methyl-1H-benzimidazole-5-carboxylic acid (5-chloro-4-methyl-pyridin-2-yl)-amide] was 100%; that for `Cn1c(Nc2c(Cl)cccc2Cl)nc2cc(C(=O)NC3CCCCCC3)ccc21` [Example 238, 2-(2,6-Dichloro-phenylamino)-1-methyl-1H-benzimidazole-5-carboxylic acid cycloheptylamide] was 100%. The same measure, in the same setting: the value for `COc1cc2c(cc1C(=O)NCc1ncccc1Cl)nc(Nc1c(Cl)cccc1Cl)n2C` [Example 631] was 100%; that for `Cn1c(Nc2c(Cl)cccc2Cl)nc2cc(C(=O)NCCC3CC3)c(F)cc21` [Example 484, N-(2-Cyclopropylethyl)-2-(2,6-dichlorophenylamino)-6-fluoro-1-methyl-1H-benzimidazole-5-carboxamide] was 95%; that for `Cn1c(Nc2c(Cl)cccc2Cl)nc2cc(C(=O)NC3CCC4(CC4)C3)c(F)cc21` (centres unmarked) [Example 415, 2-(2,6-Dichlorophenylamino)-6-fluoro-1-methyl-N-(spiro[2.4]heptan-5-yl)-1H-benzimidazole-5-carboxamide] was 100%. For the molecule `Cc1cnc(CNC(=O)c2cc3nc(Nc4c(Cl)cccc4Cl)n(C)c3cc2F)c(C)c1` [Example 470, 2-(2,6-Dichlorophenylamino)-N-((3,5-dimethylpyridin-2-yl)methyl)-6-fluoro-1-methyl-1H-benzimidazole-5-carboxamide], the inhibition at 10 µM turned out to be 100%.

For the origin of these results see patent US8916599B2, “1H-benz imidazole-5-carboxamides as anti-inflammatory agents” (Orexo AB, priority 2008, dated 2014).
